pKi: −log10 of the molar value.

The values below come from patent US9303025B2, “Apoptosis-inducing agents for the treatment of cancer and immune and autoimmune diseases” (AbbVie Inc., priority 2008, dated 2016).

For this assay, the target named is GST-Bcl-2 (Homo sapiens (Human), UniProt P10415). The assay can be described thus: Time Resolved-Fluorescence Resonance Energy Transfer (TR-FRET) Bcl-2 binding assay. The conditions noted are these: GST-Bcl-2 1 nM, F-Bak peptide probe 100 nM, Tb-anti-GST antibody 1 nM; 3 hours at room temperature; Ki by Wang's equation.
Sequence of GST-Bcl-2 (P10415 whole entry): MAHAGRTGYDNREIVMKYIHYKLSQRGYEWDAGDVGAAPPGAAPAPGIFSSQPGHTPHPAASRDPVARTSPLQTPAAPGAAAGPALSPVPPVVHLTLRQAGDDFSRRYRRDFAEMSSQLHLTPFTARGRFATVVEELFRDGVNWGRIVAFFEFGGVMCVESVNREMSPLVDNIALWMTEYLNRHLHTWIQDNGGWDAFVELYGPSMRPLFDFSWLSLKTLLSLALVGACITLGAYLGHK

Method: Tb-anti-GST antibody was purchased from Invitrogen (Catalog No. PV4216).
Representative compounds were serially diluted in dimethyl sulfoxide (DMSO) starting at 50 μM (2× starting concentration; 10% DMSO) and 10 μL were transferred into a 384-well plate. The samples are then mixed on a shaker for 1 minute and incubated for an additional 3 hours at room temperature. For each assay, the probed antibody and protein/probe/antibody were included on each assay plate as negative and positive controls, respectively. Fluorescence was measured on the Envision (Perkin Elmer) using a 340/35 nm excitation filter and 520/525 (F-Bak peptide) and 495/510 nm (Tb-labeled anti-Histidine antibody) emission filters.
The samples were then mixed on a shaker for 1 minute and incubated for an additional 3 hours at room temperature. For each assay, the probe/antibody and protein/probe/antibody were included on each assay plate as negative and positive controls, respectively. Fluorescence was measured on the Envision (Perkin Elmer) using a 340/35 nm excitation filter and 520/525 (F-Bak peptide) and 495/510 nm (Tb-labeled anti-Histidine antibody) emission filters.
The inhibition constant (Ki) is the dissociation constant of an enzyme-inhibitor complex or a protein/small molecule complex, wherein the small molecule is inhibiting binding of one protein to another protein. So a large Ki value indicates a low binding affinity and a small Ki value indicates a high binding affinity.

“4-(4-{[2-(4-chlorophenyl)-4,4-dimethylcyclohex-1-en-1-yl]methyl}piperazin-1-yl)-N-[(4-{[3-(dimethylamino)propyl]amino}-3-nitrophenyl]-2-(3-fluorophenoxy)benzamide [Example 138]” had a pKi of 10.80.
As to `CC1(C)CCC(CN2CCN(c3ccc(C(=O)NS(=O)(=O)c4ccc(NCC5CCOCC5)c([N+](=O)[O-])c4)c(Oc4cccc5c4CC(=O)N5)c3)CC2)=C(c2ccc(Cl)cc2)C1` [Example 268, 4-(4-{[2-(4-chlorophenyl)-4,4-dimethylcyclohex-1-en-1-yl]methyl}piperazin-1-yl)-N-({3-nitro-4-[(tetrahydro-2H-pyran-4-ylmethyl)amino]phenyl}sulfonyl)-2-[(2-oxo-2,3-dihydro-1H-indol-4-yl)oxy]benzamide], the pKi was 10.38.
The molecule `CC1(C)CCC(CN2CCN(c3ccc(C(=O)NS(=O)(=O)c4ccc(NCCCN5CCCC5)c([N+](=O)[O-])c4)c(Oc4cccc(Cl)c4F)c3)CC2)=C(c2ccc(Cl)cc2)C1` [Example 149, 2-(3-chloro-2-fluorophenoxy)-4-(4-{[2-(4-chlorophenyl)-4,4-dimethylcyclohex-1-en-1-yl]methyl}piperazin-1-yl)-N-({3-nitro-4-[(3-pyrrolidin-1-ylpropyl)amino]phenyl}sulfonyl)benzamide] had a pKi of 10.52.
